Reference: patent US20140329844A1, “METHOD OF RESTORING THE INCRETIN EFFECT” (NEURENDO PHARMA, LLC, priority 2006, published 2014)
“And” between values parts separate entries of the source, which are not always exact repeats. Equal values may be shown once.

Columns and labels:
[1] = Daily blood glucose profile of a subject with early stage Type 2 diabetes during GNTI administration; format: in vivo; conditions: human
Experimental: The daily blood glucose profile of a subject with early stage, [non-insulin dependent] Type 2 diabetes was monitored during extended periods of administration of guanidinylated naltrindole (GNTI).
A weekly dose of about 70 ng/kg was administered.
FIGS. 1-3 illustrate the blood glucose readings over an extended period of time, a modal week and a modal day. The target blood glucose range was 65-155 mg/dL. Table 3 illustrates that 98% of the readings were within the target range. The other 2% of the readings fell below the target range and fell between 51-64 mg/dL.
FIGS. 1-3 illustrate the subject's blood glucose readings over an extended period of time, a modal week, and a modal day. Accordingly, 227 blood glucose readings were taken, averaging 92 mg/dL over a 15 day period. 98% of all readings were between 65 and 127 mg/dL, and 2% between […], representing a very narrow overall spread.

[2] = Blood glucose, HDL-C and triglycerides in rhesus monkeys after an oral dose of GNTI; format: in vivo, rhesus monkey
Experimental: A cohort of rhesus monkeys having progressively increasing degrees of impaired glucose tolerance were monitored following an oral dose of GNTI of 86 ng/kg of body weight. Baseline readings of blood glucose (BC), high density lipoprotein C (HDL-C) and triglycerides (TO) were taken on Day 0.
The effect of GNTI was most readily seen in the change of blood glucose and blood lipid levels. […] The other 4 subjects of the cohort, i.e., r98060, r96027, r00072, r01078, had baseline blood glucose levels ranging from 71-81 and were considered to have impaired glucose tolerance.

[3] = Weight (BMI) of the subject with early stage Type 2 diabetes during GNTI administration; format: in vivo; conditions: human, extended periods of GNTI administration
Text: The weight of the subject with early stage Type 2 diabetes mellitus was also monitored during extended periods of administration on GNTI, decreasing from, a baseline body mass index (BMI) of 25 to an average BMI of 22.8, corresponding to a reduction by about 9%.

[4] = Meal tolerance test (MTT) in metabolically impaired rhesus monkeys treated with GNTI; format: in vivo, rhesus monkey; conditions: for BG / GIP / GLP-1 / Glucagon / Insulin / Glucagon Change T0-T60/120: individual animals
Experimental: To test for the effect of physiological first phase insulin secretion, a meal tolerance test (MTT) was developed. The meal tolerance test involved oral administration of meal based nutrients within suitable ratios of carbohydrates, proteins and fats. The ratios used for the given example were 70% carbohydrates, 8% protein and 22% fats. […] Following MTV administration, the same readings were taken at time points of 3-9 minutes to test for first-phase insulin secretion and the subsequent reduction in blood glucose. It was determined that a first-phase insulin secretion dependent slight increase in insulin concentration appeared, typically, at 5 minutes post MTT administration, followed by a corresponding blood glucose decrease at 7 minutes. A slight decrease in glucagon levels was also coupled with first-phase insulin secretion at 5 minutes. The MTT serves as a corollary to the intravenous glucose tolerance test (MITT) and better measures first-phase insulin secretion because oral administration of nutrients has a more direct effect on the incretin effect.
Table 7 illustrates administration of the MTT to two rhesus monkeys categorized as metabolically “normal’ based on “normal” fasting blood glucose values. The monkeys were given a diet of 55-60% carbohydrates, 15-25% protein, and 15-30% fat. Readings of blood glucose, insulin, and glucagon were taken at time points 0, 5, 7, 60 and 120 minutes. Additionally, at the same time points, the incretin hormones, GIP and GLP-1 were measured to more directly measure the incretin effect. […] Comparison of blood glucose levels at time points 0 and 120 minutes illustrates that normal metabolic functioning has returned the subject's blood glucose levels to normal within 120 minutes of MTT administration.
Table 8 illustrates the effect of GNTI on physiologic control of glucagon Baseline readings were taken on Day 1 of blood glucose, insulin, glucagon, GIP, and GLP-1 in metabolically impaired rhesus monkeys as determined through administration of the MTT. Cumulative in-situ doses of 45 ng/kg and 95 ng/kg were active on day 5 and day 7, respectively, during administration of the MTT. Readings of blood glucose, insulin, glucagon, GIP, and GLP-1 were taken at time points 0, 60 minutes and 120 minutes.

[5] = four dyslipidemic rhesus monkeys, day 8, oral GNTI 86 ng/kg
[6] = rhesus monkeys, individual animals, Day 8 after oral GNTI 86 ng/kg on Day 0
[7] = Day 5, GNTI 45 ng/kg cumulative, MTT TP 0 min
[8] = Day 5, GNTI 45 ng/kg cumulative, MTT TP 60 min
[9] = Day 5, GNTI 45 ng/kg cumulative, MTT TP 120 min
[10] = Day 7, GNTI 95 ng/kg cumulative, MTT TP 0 min
[11] = Day 7, GNTI 95 ng/kg cumulative, MTT TP 60 min
[12] = Day 7, GNTI 95 ng/kg cumulative, MTT TP 120 min

With `NC(N)=Nc1ccc2[nH]c3c(c2c1)C[C@@]1(O)[C@H]2Cc4ccc(O)c5c4[C@@]1(CCN2CC1CC1)[C@H]3O5` [GNTI, guanidinylated naltrindole] the “Lowest Blood Glucose” value ([1]; early stage Type 2 diabetes, GNTI about 70 ng/kg weekly, 15 days) was 61 mg/dL, the Average blood glucose ([1]; early stage Type 2 diabetes, GNTI about 70 ng/kg weekly, overall, 15 days, 227 readings) was 92 mg/dL and the “Maintenance of blood glucose levels within the target range” value ([1]; once weekly administration, target 65-155 mg/dL) was “aided in maintaining blood glucose levels within the target range”. The “Decrease in blood glucose, average” value ([2]; 4 rhesus monkeys having impaired glucose tolerance, day 8, oral GNTI 86 ng/kg) was 26%, the “HDL-C increase, average” value [2, 5] was 23% and the “HDL-C increase, range” value [2, 5] was 10-31%. For the same compound, the “Decrease in blood glucose levels” value ([2]; glucose normal rhesus monkey r89163, day 8, oral GNTI 86 ng/kg) was 3%, the “Increase in HDL-C lipid levels” value ([2]; lipid normal rhesus monkey r98068, day 8, oral GNTI 86 ng/kg) was 5% and the BG [2, 6] was 51 mg/dL and 53 mg/dL and 67 mg/dL and 56 mg/dL and 63 mg/dL. For the same compound, the HDL-C [2, 6] was 85 mg/dL and 46 mg/dL and 61 mg/dL and 63 mg/dL and 84 mg/dL, the TG [2, 6] was <45 mg/dL (3×) and 89 mg/dL and 60 mg/dL and the “BG Change” value ([2]; rhesus monkeys, individual animals, Day 8 vs Baseline, oral GNTI 86 ng/kg) was “(−3%)”. For the same compound, the “Reduction of BMI from baseline” value [3] was “about 9%”, the “Average body mass index (BMI)” value ([3]; baseline BMI 25) was 22.8 and the “Effect on glucagon after MTT” value ([4]; both dosages (45 and 95 ng/kg), time points 60 and 120, all subjects tested) was “marked decrease in glucagon”. For the same compound, the BG [4, 7] was 83 mg/dL and 69 mg/dL and 51 mg/dL, the GIP [4, 7] was 50 pg/mL and 8 pg/mL and the GLP-1 [4, 7] was 34 pmol/L and 19 pmol/L and 11 pmol/L. For the same compound, the Glucagon [4, 7] was 411 pg/mL (2×) and 302 pg/mL, the Insulin [4, 7] was 57 microU/mL and 23 microU/mL and 14 microU/mL and the BG [4, 8] was 98 mg/dL and 70 mg/dL and 64 mg/dL. For the same compound, the GIP [4, 8] was 640 pg/mL and 320 pg/mL and 650 pg/mL, the GLP-1 [4, 8] was 83 pmol/L and 49 pmol/L and 31 pmol/L and the Glucagon [4, 8] was 366 pg/mL and 172 pg/mL and 267 pg/mL. The Insulin [4, 8] was 396 microU/mL and 145 microU/mL and 122 microU/mL, the BG [4, 9] was 61 mg/dL and 78 mg/dL and 76 mg/dL and the GIP [4, 9] was 760 pg/mL and 775 pg/mL. For the same compound, the GLP-1 [4, 9] was 31 pmol/L and 82 pmol/L and 79 pmol/L, the Glucagon [4, 9] was 261 pg/mL and 249 pg/mL and 122 pg/mL and the Insulin [4, 9] was 200 microU/mL and 249 microU/mL and 137 microU/mL. For the same compound, the “Glucagon Change T0-T60/120” value ([4]; Day 5, GNTI 45 ng/kg cumulative, T0 to T60 min) was −11% and −43% and −35%, the “Glucagon Change T0-T60/120” value ([4]; Day 5, GNTI 45 ng/kg cumulative, T0 to T120 min) was −36% and −39% and −60% and the BG [4, 10] was 56 mg/dL and 82 mg/dL and 73 mg/dL. The GIP [4, 10] was 30 pg/mL and 25 pg/mL and 20 pg/mL, the GLP-1 [4, 10] was 28 pmol/L and 60 pmol/L and 67 pmol/L and the Glucagon [4, 10] was 472 pg/mL and 487 pg/mL and 293 pg/mL. The Insulin [4, 10] was 14 microU/mL and 71 microU/mL and 30 microU/mL, the BG [4, 11] was 70 mg/dL and 106 mg/dL and 69 mg/dL and the GIP [4, 11] was 675 pg/mL (2×) and 75 pg/mL. The GLP-1 [4, 11] was 35 pmol/L and 60 pmol/L, the Glucagon [4, 11] was 240 pg/mL and 351 pg/mL and 107 pg/mL and the Insulin [4, 11] was 100 microU/mL and 401 microU/mL and 54 microU/mL. The BG [4, 12] was 63 mg/dL and 95 mg/dL and 86 mg/dL, the GIP [4, 12] was 675 pg/mL and 775 pg/mL and 240 pg/mL and the GLP-1 [4, 12] was 223 pmol/L and 77 pmol/L. The Glucagon [4, 12] was 271 pg/mL and 267 pg/mL and 108 pg/mL, the Insulin [4, 12] was 54 microU/mL and 307 microU/mL and 71 microU/mL and the “Glucagon Change T0-T60/120” value ([4]; Day 7, GNTI 95 ng/kg cumulative, T0 to T60 min) was −49% and −28% and −63%. The “Glucagon Change T0-T60/120” value ([4]; Day 7, GNTI 95 ng/kg cumulative, T0 to T120 min) was −43% and −45% and −63%.
